Results: patent publication US20250353820A1, “ANTIVIRAL PYRAZOLOPYRIDINONE COMPOUNDS” (Novartis AG, priority 2019, published 2025)

target: human HSV DNA polymerase UL30 (Human herpesvirus 1 (strain 17) (HHV-1) (Human herpes simplex virus 1), UniProt P04293); assay: biochemical; settings: 625 pM HSV polymerase, 20 minutes at room temperature; read-out: HSV-polymerase Biochemical IC50

**Q.** Which IC50 does the source give for `Cn1nc(C(=O)NCc2ccc(C#N)cc2)c2c1C(=O)N(CC1(S(=O)(=O)N3CCC(C)(O)C3)CC1)CC2` (single isomer, unassigned) [Example 130, (R)- or (S)-N-(4-Cyanobenzyl)-6-((1-((3-hydroxy-3-methylpyrrolidin-1-yl)sulfonyl)cyclopropyl)methyl)-1-methyl-7-oxo-4,5,6,7-tetrahydro-1H-pyrazolo[3,4-c]pyridine-3-carboxamide] here?
**A.** 0.122 µM

**Q.** `Cn1nc(C(=O)NCc2ccc(C#N)cc2)c2c1C(=O)N(CC1(S(=O)(=O)C3CC3)CC1)CC2` [Example 3, N-(4-cyanobenzyl)-6-((1-(cyclopropylsulfonyl)cyclopropyl)methyl)-1-methyl-7-oxo-4,5,6,7-tetrahydro-1H-pyrazolo[3,4-c]pyridine-3-carboxamide] was tested. Which IC50 did it give?
**A.** 0.055 µM

**Q.** For `Cn1nc(C(=O)NCc2ccc(Cl)cc2)c2c1C(=O)N(CC1(S(=O)(=O)C3CC3)CC1)CC2` [Example 4, N-(4-Chlorobenzyl)-6-((1-(cyclopropylsulfonyl)cyclopropyl)methyl)-1-methyl-7-oxo-4,5,6,7-tetrahydro-1H-pyrazolo[3,4-c]pyridine-3-carboxamide], which IC50 is on record?
**A.** 0.048 µM

**Q.** `Cn1nc(C(=O)NCc2ccc(F)cc2)c2c1C(=O)N(CC1(S(=O)(=O)C3CC3)CC1)CC2` [Example 5, 6-((1-(Cyclopropylsulfonyl)cyclopropyl)methyl)-N-(4-fluorobenzyl)-1-methyl-7-oxo-4,5,6,7-tetrahydro-1H-pyrazolo[3,4-c]pyridine-3-carboxamide] was tested. Which IC50 did it give?
**A.** 0.416 µM

**Q.** Which IC50 does the source give for `CN(Cc1ccc(C#N)cc1)C(=O)c1nn(C)c2c1CCN(CC1(S(=O)(=O)C3CC3)CC1)C2=O` [Example 6, N-(4-Cyanobenzyl)-6-((1-(cyclopropylsulfonyl)cyclopropyl)methyl)-N,1-dimethyl-7-oxo-4,5,6,7-tetrahydro-1H-pyrazolo[3,4-c]pyridine-3-carboxamide] here?
**A.** 0.959 µM

**Q.** For `Cc1ccc(CNC(=O)c2nn(C)c3c2CCN(CC2(S(=O)(=O)C4CC4)CC2)C3=O)cc1` [Example 8, 6-((1-(Cyclopropylsulfonyl)cyclopropyl)methyl)-1-methyl-N-(4-methylbenzyl)-7-oxo-4,5,6,7-tetrahydro-1H-pyrazolo[3,4-c]pyridine-3-carboxamide], which IC50 is on record?
**A.** 1.63 µM

**Q.** For `Cn1nc(C(=O)NCc2ccc(C#N)c(F)c2)c2c1C(=O)N(CC1(S(=O)(=O)C3CC3)CC1)CC2` [Example 9, N-(4-Cyano-3-fluorobenzyl)-6-((1-(cyclopropylsulfonyl)cyclopropyl)methyl)-1-methyl-7-oxo-4,5,6,7-tetrahydro-1H-pyrazolo[3,4-c]pyridine-3-carboxamide], which IC50 is on record?
**A.** 0.045 µM

**Q.** How did the IC50 turn out when `Cn1nc(C(=O)NCc2ccc(Cl)s2)c2c1C(=O)N(CC1(S(=O)(=O)C3CC3)CC1)CC2` [Example 10, N-((5-Chlorothiophen-2-yl)methyl)-6-((1-(cyclopropylsulfonyl)cyclopropyl)methyl)-1-methyl-7-oxo-4,5,6,7-tetrahydro-1H-pyrazolo[3,4-c]pyridine-3-carboxamide] was run?
**A.** 0.641 µM

**Q.** For `Cc1cc(CNC(=O)c2nn(C)c3c2CCN(CC2(S(=O)(=O)C4CC4)CC2)C3=O)ccc1C#N` [Example 11, N-(4-Cyano-3-methylbenzyl)-6-((1-(cyclopropylsulfonyl)cyclopropyl)methyl)-1-methyl-7-oxo-4,5,6,7-tetrahydro-1H-pyrazolo[3,4-c]pyridine-3-carboxamide], which IC50 is on record?
**A.** 2.23 µM

**Q.** For `Cc1cc(C#N)ccc1CNC(=O)c1nn(C)c2c1CCN(CC1(S(=O)(=O)C3CC3)CC1)C2=O` [Example 12, N-(4-Cyano-2-methylbenzyl)-6-((1-(cyclopropylsulfonyl)cyclopropyl)methyl)-1-methyl-7-oxo-4,5,6,7-tetrahydro-1H-pyrazolo[3,4-c]pyridine-3-carboxamide], which IC50 is on record?
**A.** 0.346 µM

**Q.** `Cn1nc(C(=O)NCc2ccc(C#N)cc2F)c2c1C(=O)N(CC1(S(=O)(=O)C3CC3)CC1)CC2` [Example 13, N-(4-Cyano-2-fluorobenzyl)-6-((1-(cyclopropylsulfonyl)cyclopropyl)methyl)-1-methyl-7-oxo-4,5,6,7-tetrahydro-1H-pyrazolo[3,4-c]pyridine-3-carboxamide] was tested. Which IC50 did it give?
**A.** 0.311 µM

**Q.** With `Cn1nc(C(=O)NCc2ccc(C#N)cn2)c2c1C(=O)N(CC1(S(=O)(=O)C3CC3)CC1)CC2` [Example 14, N-((5-Cyanopyridin-2-yl)methyl)-6-((1-(cyclopropylsulfonyl)cyclopropyl)methyl)-1-methyl-7-oxo-4,5,6,7-tetrahydro-1H-pyrazolo[3,4-c]pyridine-3-carboxamide] as the molecule, how does the IC50 read?
**A.** 1.61 µM

**Q.** `COc1cc(CNC(=O)c2nn(C)c3c2CCN(CC2(S(=O)(=O)C4CC4)CC2)C3=O)ccc1C#N` [Example 15, N-(4-Cyano-3-methoxybenzyl)-6-((1-(cyclopropylsulfonyl)cyclopropyl)methyl)-1-methyl-7-oxo-4,5,6,7-tetrahydro-1H-pyrazolo[3,4-c]pyridine-3-carboxamide] was tested. Which IC50 did it give?
**A.** 0.385 µM

**Q.** With `C[C@H](NC(=O)c1nn(C)c2c1CCN(CC1(S(=O)(=O)C3CC3)CC1)C2=O)c1ccc(C#N)cc1` [Example 16, (S)-N-(1-(4-Cyanophenyl)ethyl)-6-((1-(cyclopropylsulfonyl)cyclopropyl)methyl)-1-methyl-7-oxo-4,5,6,7-tetrahydro-1H-pyrazolo[3,4-c]pyridine-3-carboxamide] as the molecule, how does the IC50 read?
**A.** 0.239 µM

**Q.** Which IC50 does the source give for `C[C@@H](NC(=O)c1nn(C)c2c1CCN(CC1(S(=O)(=O)C3CC3)CC1)C2=O)c1ccc(C#N)cc1` [Example 17, (R)-N-(1-(4-Cyanophenyl)ethyl)-6-((1-(cyclopropylsulfonyl)cyclopropyl)methyl)-1-methyl-7-oxo-4,5,6,7-tetrahydro-1H-pyrazolo[3,4-c]pyridine-3-carboxamide] here?
**A.** > 25 µM

**Q.** For `Cn1nc(C(=O)N[C@@H](CO)c2ccc(Cl)cc2)c2c1C(=O)N(CC1(S(=O)(=O)C3CC3)CC1)CC2` [Example 18, (R)-N-(1-(4-Chlorophenyl)-2-hydroxyethyl)-6-((1-(cyclopropylsulfonyl)cyclopropyl)methyl)-1-methyl-7-oxo-4,5,6,7-tetrahydro-1H-pyrazolo[3,4-c]pyridine-3-carboxamide], which IC50 is on record?
**A.** 1.05 µM

**Q.** Which IC50 does the source give for `Cn1nc(C(=O)N[C@H](CO)c2ccc(Cl)cc2)c2c1C(=O)N(CC1(S(=O)(=O)C3CC3)CC1)CC2` [Example 19, (S)-N-(1-(4-Chlorophenyl)-2-hydroxyethyl)-6-((1-(cyclopropylsulfonyl)cyclopropyl)methyl)-1-methyl-7-oxo-4,5,6,7-tetrahydro-1H-pyrazolo[3,4-c]pyridine-3-carboxamide] here?
**A.** 8.18 µM

**Q.** `CCS(=O)(=O)C1(CN2CCc3c(C(=O)NCc4ccc(C#N)cc4)nn(C)c3C2=O)CC1` [Example 20, N-(4-Cyanobenzyl)-6-((1-(ethylsulfonyl)cyclopropyl)methyl)-1-methyl-7-oxo-4,5,6,7-tetrahydro-1H-pyrazolo[3,4-c]pyridine-3-carboxamide] was tested. Which IC50 did it give?
**A.** 0.259 µM

**Q.** With `Cn1nc(C(=O)NCc2ccc(C#N)cc2)c2c1C(=O)N(CC1(S(C)(=O)=O)CC1)CC2` [Example 21, N-(4-Cyanobenzyl)-1-methyl-6-((1-(methylsulfonyl)cyclopropyl)methyl)-7-oxo-4,5,6,7-tetrahydro-1H-pyrazolo[3,4-c]pyridine-3-carboxamide] as the molecule, how does the IC50 read?
**A.** 0.517 µM

**Q.** With `Cn1nc(C(=O)NCc2ccc(Cl)cc2)c2c1C(=O)N(CC1(S(C)(=O)=O)CC1)CC2` [Example 22, N-(4-Chlorobenzyl)-1-methyl-6-((1-(methylsulfonyl)cyclopropyl)methyl)-7-oxo-4,5,6,7-tetrahydro-1H-pyrazolo[3,4-c]pyridine-3-carboxamide] as the molecule, how does the IC50 read?
**A.** 0.436 µM

**Q.** Which IC50 does the source give for `Cn1nc(C(=O)NCc2ccc(C#N)c(F)c2)c2c1C(=O)N(CC1(S(C)(=O)=O)CC1)CC2` [Example 23, N-(4-Cyano-3-fluorobenzyl)-1-methyl-6-((1-(methylsulfonyl)cyclopropyl)methyl)-7-oxo-4,5,6,7-tetrahydro-1H-pyrazolo[3,4-c]pyridine-3-carboxamide] here?
**A.** 0.345 µM

**Q.** With `Cn1nc(C(=O)OCc2ccc(C#N)cc2)c2c1C(=O)N(CC1(S(=O)(=O)C3CC3)CC1)CC2` [Example 24, 4-cyanobenzyl 6-((1-(cyclopropylsulfonyl)cyclopropyl)methyl)-1-methyl-7-oxo-4,5,6,7-tetrahydro-1H-pyrazolo[3,4-c]pyridine-3-carboxylate] as the molecule, how does the IC50 read?
**A.** 0.467 µM

**Q.** How did the IC50 turn out when `Cn1nc(C(=O)COc2ccc(C#N)cc2)c2c1C(=O)N(CC1(S(=O)(=O)C3CC3)CC1)CC2` [Example 25, 4-(2-(6-((1-(cyclopropylsulfonyl)cyclopropyl)methyl)-1-methyl-7-oxo-4,5,6,7-tetrahydro-1H-pyrazolo[3,4-c]pyridin-3-yl)-2-oxoethoxy)benzonitrile] was run?
**A.** 0.053 µM

**Q.** Which IC50 does the source give for `Cn1nc(-c2nnc(Cc3ccc(C#N)cc3)o2)c2c1C(=O)N(CC1(S(=O)(=O)C3CC3)CC1)CC2` [Example 26, 4-((5-(6-((1-(Cyclopropylsulfonyl)cyclopropyl)methyl)-1-methyl-7-oxo-4,5,6,7-tetrahydro-1H-pyrazolo[3,4-c]pyridin-3-yl)-1,3,4-oxadiazol-2-yl)methyl)benzonitrile] here?
**A.** 3.96 µM

**Q.** `Cn1nc(-c2noc(Cc3ccc(C#N)cc3)n2)c2c1C(=O)N(CC1(S(=O)(=O)C3CC3)CC1)CC2` [Example 28, 4-((3-(6-((1-(Cyclopropylsulfonyl)cyclopropyl)methyl)-1-methyl-7-oxo-4,5,6,7-tetrahydro-1H-pyrazolo[3,4-c]pyridin-3-yl)-1,2,4-oxadiazol-5-yl)methyl)benzonitrile] was tested. Which IC50 did it give?
**A.** 0.029 µM

**Q.** With `Cn1nc(-c2nnn(Cc3ccc(C#N)cc3)n2)c2c1C(=O)N(CC1(S(=O)(=O)C3CC3)CC1)CC2` [Example 29, 4-((5-(6-((1-(Cyclopropylsulfonyl)cyclopropyl)methyl)-1-methyl-7-oxo-4,5,6,7-tetrahydro-1H-pyrazolo[3,4-c]pyridin-3-yl)-2H-tetrazol-2-yl)methyl)benzonitrile] as the molecule, how does the IC50 read?
**A.** 0.086 µM

**Q.** For `Cn1nc(-c2nnnn2Cc2ccc(C#N)cc2)c2c1C(=O)N(CC1(S(=O)(=O)C3CC3)CC1)CC2` [Example 30, 4-((5-(6-((1-(cyclopropylsulfonyl)cyclopropyl)methyl)-1-methyl-7-oxo-4,5,6,7-tetrahydro-1H-pyrazolo[3,4-c]pyridin-3-yl)-1H-tetrazol-1-yl)methyl)benzonitrile], which IC50 is on record?
**A.** 6.24 µM
